From patent US20210236465A1, “METHODS AND COMPOSITIONS FOR TREATING HETEROTOPIC OSSIFICATION” (President and Fellows of Harvard College, priority 2019, published 2021) come the findings set out here.

Data set [1] relates to Gnas^f/f mice after Ad-Cre injection (POH mouse model). Nature of the data set: POH mouse model: Gnas^f/f mice with subcutaneous Ad-Cre injection, ectopic and endogenous bone by μCT.
The next data set deals with Gnas^-/- SMP cells. Briefly: Osteoblast differentiation (ALP) of Gnas^-/- SMP cells in osteogenic medium. The format is cell-based, mouse. The protocol:
(§1) For ALP staining, cells were fixed in 4% PFA for 20 minutes, washed with PBS for three times, then stained with 1-Step NBT/BCIP (Thermo, 34042) for 30 minutes and washed by PBS. There were three biological replicates for each group. ALP staining was quantified as previously described. Cells were scraped into a radioimmunoprecipitation assay (RIPA) buffer (containing 50 mM Tris-HCl pH 7.5, 150 mM NaCl, 5% Glycerol, 1 mM EDTA, 1% NP-40, 0.1% SDS and 0.25% Na-deoxycholate) and centrifuged. The enzymatic alkaline phosphatase activity in the supernatant of cell lysate was assayed by measuring the chromogenic p-nitrophenol formed from the enzymatic hydrolysis of p-nitrophenyl phosphate (the substrate) by light absorbance at 405 nm. The alkaline phosphatase activity was normalized to total protein, as measured by BCA protein assay. All experiments were performed in triplicates and means and standard deviations were calculated.
Subcutaneous mesenchymal progenitor (SMP) cells are potential osteoprogenitor cells within the subcutaneous connective tissue which can be induced to become osteoblast cells and adipocytes. Subcutaneous skin tissue containing adipose deposits was removed under sterile conditions and washed in PBS supplemented with 100 U/mL penicillin and 100 μg/mL streptomycin on ice. The tissue was then minced, and digested with 1 mg/ml collagenase type I and 0.5% Trypsin in 0.1% BSA for 70 minutes at 37° C. The digested tissue was centrifuged at 500 g for 10 min and the pellet was carefully collected after aspirating off the floating fat depots. After a second centrifugation at 500 g for 10 min, the cellular pellet was filtered through a 100 μm mesh filter to remove debris.
(§2) Cre recombinase adenovirus from Berk (˜10^12 pfu/ml) were diluted 1:50 in 100 μl PBS solution and injected into the subcutaneous region of the limbs of 4 weeks old mice. Six weeks, 3 months or 8 months after injection, the limbs were harvested from euthanized mice and fixed in 4% PFA overnight. Ectopic bone formation was analyzed by μCT and skeletal preparation. The Cre recombinase or GFP adenovirus (˜10^10 pfu/ml) was diluted 1:2000 to infect cells in vitro. Four hours later, fresh medium was added and 24 hours later, the medium was changed.

The test system of data set [2] is WT mice with Achilles tendon puncture (ATP). Nature of the data set: Achilles tendon puncture (ATP) injury-induced HO mouse model, μCT. Type of data set: in vivo. To be noted: for HO formation (ectopic bone volume): from the day of ATP, vs vehicle. From the text: For ATP mouse model, 4-week-old male mice were anesthetized. A 27-gauge needle was punctured into the Achilles tendon body from the lateral aspect percutaneously and this process was repeated six times at different parts of Achilles tendon body for each mouse. For sham operation, the needle was punctured through the skin without touching the Achilles tendons.
(§3) Mice were fixed overnight in 4% PFA and transferred to 70% ethanol, then analyzed by high-resolution μCT using a deskop μCT (Scanco Medical) according to recommended guidelines. The scanner was set at a voltage of 55 kV and a resolution of 12.3 μm per pixel. The images were reconstructed, analyzed for HO bone volume and endogenous bone mass. Briefly cortical bone parameters and cancellous bone microarchitecture from tibia were determined using a 7-μm isotropic voxel size. For ectopic bone, bone volume was measured. For cancellous bone, bone volume fraction (bone volume per tissue volume [BV/TV]) (percentage), trabecular number (Tb.N) (per millimeter), trabecular thickness (Tb.Th) (millimeter), trabecular separation (Tb.Sp) (millimeter) was analyzed. For cortical bone, cortical area fraction (Ct. BV/TV) (percentage), cortical bone density (Ct. BMD) (mgHA/cm3) were evaluated.

Another data set relates to ACVR1^Q207D/+ SMPs. Nature of the data set: ACVR1^Q207D/+ SMPs with Ad-Cre infection: ALP activity and QRT-PCR. The format is cell-based, mouse. The settings on record: VP 200 ng/ml for 7 days. The protocol:
as §1
The skin was removed from the hindlimb covering the tibia and the subcutaneous tissue area (5 mm (1)×5 mm (w)×4 mm (h)) where the Ad-Cre were locally injected was isolated. Subcutaneous connective tissue and some muscle cells surrounding the ectopic bone would have been included. Total RNA was isolated first with Trizol (Invitrogen). […] PCR product accumulation was detected using Sybr green (Invitrogen; Platinum SYBR Green qPCR SuperMix-UDG). […]

Data set [3] relates to ACVR1^R206H; ScxCre mice (FOP model). Briefly: FOP mouse model ScxCre; ACVR1^R206H, HO volume by μCT. The format is in vivo. The settings on record: VP 4 mg/kg/d IP, 5 days per week, starting at 6 weeks of age for 8 weeks. On the procedure:
The ACVR1^FlExR206H mice conditionally express ACVR1^R206H/+ knock-in alleles, were kindly provided by Dr. Aris Economides (Regeneron Pharmaceuticals, Inc.), mated with ScxCre mice, to yield ScxCre; ACVR1^FlEx206H/+ mice, which represent a FOP mouse model that develops spontaneous HO of tendons, ligaments, and joints. These mice were treated with Verteporfin (VP) (4 mg/kg/d intraperitoneal (IP) injection, 5 days per week) or an equal volume of PBS for 8 weeks, starting at 6 weeks of age. […]
as §3, with “The scanner was set at a voltage of 55 kV and a resolution of 12.3 μm per pixel.” left out

The subject of the next data set is Shh protein. Nature of the data set: Shh protein levels by Western blotting in Gnas^f/f SMPs after Ad-Cre infection. The settings on record: 200 ng/ml for 7 days after Ad-Cre infection (FIG. 4B). The format is cell-based, mouse. The protocol: as §2
Tissue or cell lysates were prepared using a lysis buffer [20 mM Tris (pH 7.4), 150 mM NaCl, 1% Tri-ton X-100, 1 mM EDTA, 1 mM EGTA, 2.5 mM sodium pyrophosphate, 1 mM β-glycerophosphate, 1 mM sodium orthovanadate] or RIPA buffer (Santa Cruz Biotechnology), respectively, containing protease inhibitor mixture (Roche). Total cell lysates were analyzed by Western blotting according to standard procedures.
(In western blotting, separated proteins are transferred to a membrane and probed.)

Where [4] appears, read: Gnas^-/- SMP cells cultured with the inhibitors for 7 days (FIG. 11G).

Consider `CC(C)c1cnn2c(NCc3ccccc3)cc(NC[C@H]3CCNC[C@@H]3O)nc12` [CT7001], for which, in data set [1] (CT7001 10 mg/kg gavage every other day after Ad-Cre injection), the “HO (ectopic bone volume, μCT)” value is on record as “reduced HO”. For the same molecule, in the data set with Gnas^-/- SMP cells (setting [4]), the “osteoblast differentiation (ALP)” value is “reduced”.

Regarding `CN(C)C/C=C/C(=O)Nc1ccc(C(=O)Nc2cccc(Nc3ncc(Cl)c(-c4c[nH]c5ccccc45)n3)c2)cc1` [THZ1], the “HO formation (ectopic bone volume)” value in data set [2] (THZ1 (1 mM) applied on the skin of the trauma area) was “completely blocked”. Besides, the “HO (ectopic bone volume, μCT)” value in data set [1] (THZ1 10 mg/kg IP injection 5 days a week after Ad-Cre injection) is given as “reduced HO”. In the data set on Gnas^-/- SMP cells (setting [4]), the “osteoblast differentiation (ALP)” value is “reduced”.

Take Verteporfin [VP]: the “osteoblast differentiation (ALP)” value is given as “reduced” with ACVR1^Q207D/+ SMPs, “decreased” with Gnas^-/- SMP cells (200 ng/ml for 7 days after Ad-Cre infection (FIG. 4A)) and “reduced” in the data set on Gnas^-/- SMP cells (setting [4]). For the same molecule, the “expression of Yap and Hh target genes, Shh and Ihh” value with ACVR1^Q207D/+ SMPs (QRT-PCR) was “reduced”. In addition, the “endogenous bone mass (tibia bones)” value in data set [2] (VP IP 2.5 mg/kg 5 days per week, VP treated vs control) is “no significant difference”. For the same molecule, the “HO formation (ectopic bone volume)” value in data set [2] (VP higher dose 200 μg/ml applied on the skin of the trauma area) is “completely blocked”; in data set [2] (VP low dose 20 μg/ml applied on the skin of the trauma area) it was “reduced”. Further, the “tendon, ligament, and intra-articular HO (HO volume)” value in data set [3] was “significantly reduced”. In addition, in data set [1] (3 months of non-stop VP treatment (IP 2.5 mg/kg)), the endogenous bone mass entry is “not reduced”. Further, in data set [1] (6 weeks after VP IP injection (2.5 mg/kg, 5 days per week), treated vs untreated), the “endogenous tibia bone mass” value is “no significant change”. Further, the “HO after VP withdrawal” value in data set [1] (VP IP 2.5 mg/kg for 6 weeks from Ad-Cre injection, then no treatment, harvested 3 months after Ad-Cre) is recorded as “significantly reduced”. Besides, in data set [1] (VP IP 2.5 mg/kg started 6 weeks after Ad-Cre injection, 5 times per week for 6 weeks, vs untreated), the “already formed HO (ectopic bone volume)” value was “obviously reduced”. For the same molecule, the “HO (ectopic bone volume, μCT)” value in data set [1] (VP IP injection (2.5 mg/kg) 5 days a week for 6 weeks, immediately after Ad-Cre injection) is reported as “more effective HO blockage”; in data set [1] (VP topically applied (0.2 mg/ml; 200 μg/ml) 5 days per week for 6 weeks, immediately after Ad-Cre injection), “HO reduction”. Moreover, the Shh protein levels result in the data set on Shh protein is “decreased”.
